Assays:
[1] = molecular target: MalA (Malbranchea aurantiaca, UniProt L0E155); assay: LC/MS halogenation assay; format: biochemical; conditions: full pathway reconstitution, NaCl
[2] = molecular target: MalG R (Malbranchea aurantiaca, UniProt L0E2Z1); assay: LC/MS product formation; format: biochemical; conditions: substrate analog 23 loaded on MalG T2
[3] = molecular target: T1, PhqE (Penicillium fellutanum, UniProt L0E2Z4); assay: X-ray crystal structure, […] Å; format: binding; conditions: complex with (+)-premalbrancheamide
T1 sequence (L0E2Z4 whole entry): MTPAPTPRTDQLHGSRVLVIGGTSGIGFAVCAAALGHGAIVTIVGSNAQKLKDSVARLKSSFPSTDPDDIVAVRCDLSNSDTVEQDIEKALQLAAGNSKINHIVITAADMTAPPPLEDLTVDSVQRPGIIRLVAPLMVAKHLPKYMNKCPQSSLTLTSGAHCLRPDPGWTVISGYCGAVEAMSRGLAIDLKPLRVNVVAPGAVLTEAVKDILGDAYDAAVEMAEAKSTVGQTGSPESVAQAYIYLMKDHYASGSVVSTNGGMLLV

[4] = molecular target: T1, PhqE; assay: X-ray crystal structure; format: binding; conditions: crystals grown with NAD+
[5] = molecular target: T2, MalE (Malbranchea aurantiaca, UniProt L0E2P7); assay: prenyltransferase assay, LC/MS; format: biochemical; conditions: substrate-loaded MalG domains, NADPH
T2 sequence (L0E2P7 1-438): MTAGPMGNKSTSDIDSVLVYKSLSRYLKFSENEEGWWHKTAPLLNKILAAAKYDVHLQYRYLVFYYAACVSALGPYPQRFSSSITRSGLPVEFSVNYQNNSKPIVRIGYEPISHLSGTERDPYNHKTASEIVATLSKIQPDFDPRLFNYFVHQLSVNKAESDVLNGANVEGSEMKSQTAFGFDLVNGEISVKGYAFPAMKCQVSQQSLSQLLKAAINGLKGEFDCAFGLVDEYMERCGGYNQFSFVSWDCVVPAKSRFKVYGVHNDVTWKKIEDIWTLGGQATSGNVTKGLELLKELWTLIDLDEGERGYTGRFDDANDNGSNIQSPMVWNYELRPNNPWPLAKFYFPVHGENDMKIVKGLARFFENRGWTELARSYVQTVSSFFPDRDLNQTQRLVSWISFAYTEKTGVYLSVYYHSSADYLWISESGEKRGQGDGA

[6] = molecular target: T3, MalB (Malbranchea aurantiaca, UniProt L0E2Y5); assay: prenyltransferase assay, LC/MS; format: biochemical; conditions: substrate-loaded MalG domains, NADPH
T3 sequence (L0E2Y5 1-369): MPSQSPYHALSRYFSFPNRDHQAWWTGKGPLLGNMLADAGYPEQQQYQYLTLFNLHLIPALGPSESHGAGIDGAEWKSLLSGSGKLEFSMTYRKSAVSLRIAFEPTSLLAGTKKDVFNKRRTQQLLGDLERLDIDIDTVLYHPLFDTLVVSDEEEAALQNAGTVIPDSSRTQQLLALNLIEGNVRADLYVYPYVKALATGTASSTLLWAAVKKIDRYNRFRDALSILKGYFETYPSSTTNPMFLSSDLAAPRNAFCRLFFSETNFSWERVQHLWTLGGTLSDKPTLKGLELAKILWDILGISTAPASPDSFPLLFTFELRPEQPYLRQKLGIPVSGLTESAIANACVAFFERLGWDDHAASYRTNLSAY

Chain of MalG R (L0E2Z1 1950-2345): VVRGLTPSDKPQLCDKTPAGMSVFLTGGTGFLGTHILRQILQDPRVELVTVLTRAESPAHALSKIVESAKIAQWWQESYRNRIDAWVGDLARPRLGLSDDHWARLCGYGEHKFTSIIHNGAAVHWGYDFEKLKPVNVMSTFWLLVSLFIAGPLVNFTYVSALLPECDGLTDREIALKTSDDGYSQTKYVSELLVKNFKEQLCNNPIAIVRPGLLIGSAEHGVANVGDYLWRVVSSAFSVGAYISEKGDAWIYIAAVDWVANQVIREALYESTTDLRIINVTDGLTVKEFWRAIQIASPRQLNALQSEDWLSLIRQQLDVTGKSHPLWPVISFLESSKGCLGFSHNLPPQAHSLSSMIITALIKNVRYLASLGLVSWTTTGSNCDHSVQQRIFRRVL
Chain of MalA (L0E155 whole entry): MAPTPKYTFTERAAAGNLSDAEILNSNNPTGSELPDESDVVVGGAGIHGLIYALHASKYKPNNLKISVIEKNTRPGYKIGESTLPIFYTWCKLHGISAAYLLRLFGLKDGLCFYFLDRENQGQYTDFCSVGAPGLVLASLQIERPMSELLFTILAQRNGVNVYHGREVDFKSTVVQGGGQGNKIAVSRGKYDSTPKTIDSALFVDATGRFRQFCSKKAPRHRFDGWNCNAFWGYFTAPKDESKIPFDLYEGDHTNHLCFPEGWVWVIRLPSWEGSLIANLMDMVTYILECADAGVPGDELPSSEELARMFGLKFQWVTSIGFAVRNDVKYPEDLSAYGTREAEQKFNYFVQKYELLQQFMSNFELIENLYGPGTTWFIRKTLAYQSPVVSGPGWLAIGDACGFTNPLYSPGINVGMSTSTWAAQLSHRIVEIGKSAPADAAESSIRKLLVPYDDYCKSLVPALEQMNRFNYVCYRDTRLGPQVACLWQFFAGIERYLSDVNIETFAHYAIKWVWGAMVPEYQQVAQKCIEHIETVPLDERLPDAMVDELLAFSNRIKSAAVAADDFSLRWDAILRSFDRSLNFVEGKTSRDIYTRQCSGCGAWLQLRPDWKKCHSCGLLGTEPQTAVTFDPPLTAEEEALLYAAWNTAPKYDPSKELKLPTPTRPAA

## Cc1cc2c(cc1C)N(C[C@H](O)[C@H](O)[C@H](O)COP(=O)(O)OP(=O)(O)OC[C@H]1O[C@@H](n3cnc4c(N)ncnc43)[C@H](O)[C@@H]1O)c1[nH]c(=O)[nH]c(=O)c1N2 [FADH2]
[1]
  LC/MS halogenation assay: We incubated MalA with its pathway partners (L-Pro and L-Trp MalG, MalE and MalC, NADPH

## NC(=O)C1=CN([C@@H]2O[C@H](COP(=O)(O)OP(=O)(O)OC[C@H]3O[C@@H](n4cnc5c(N)ncnc54)[C@H](OP(=O)(O)O)[C@@H]3O)[C@@H](O)[C@H]2O)C=CC1 [NADPH]
[2]
  LC/MS product formation: NADPH was the preferred cofactor in this reaction

## NC(=O)c1ccc[n+]([C@@H]2O[C@H](COP(=O)(O)OP(=O)(O)OC[C@H]3O[C@@H](n4cnc5c(N)ncnc54)[C@H](OP(=O)(O)O)[C@@H]3O)[C@@H](O)[C@H]2O)c1 [NADP^+]
[3]
  X-ray crystal structure, 2.4 Å: PhqE crystals grown with NADP^+ showed strong electron density for the cofactor

## NC(=O)c1ccc[n+]([C@@H]2O[C@H](COP(=O)(O)OP(=O)(O)OC[C@H]3O[C@@H](n4cnc5c(N)ncnc54)[C@H](O)[C@@H]3O)[C@@H](O)[C@H]2O)c1 [NAD^+]
[4]
  X-ray crystal structure: while NAD^+ showed weak electron density

## CC(C)=CCOP(=O)(O)OP(=O)(O)O [dimethylallyl pyrophosphate]
[5]
  prenyltransferase assay, LC/MS: dimethylallyl pyrophosphate (DMAPP), the prenyl donor. MalE readily catalyzed a C2 reverse prenyl transfer
[6]
  prenyltransferase assay, LC/MS: whereas MalB displayed modest activity

Reference: paper PMC6815239 (Nature chemistry, 2019)
